Measured values as given in patent US12473262B2, “Aryl hydrocarbon receptor activators” (Oregon State University, priority 2019, dated 2025).
pIC50: −log10 of the molar value. Where two headings read alike, the source gives them in different places.

Legend:
[1] = target: aryl hydrocarbon receptor (AhR) (Mus musculus (Mouse), UniProt P30561); experiment: AhR ligand screening: AhRE-luciferase reporter in transfected Hepa1 cells; assay type: cell-based; conditions: for Fold @ 1 nM: fold change of luciferase expression at 1 nM test compound relative to vehicle (0.1% DMSO); for Fold @ 100 nM: fold change of luciferase expression at 100 nM test compound relative to vehicle (0.1% DMSO); for Fold @ 10 uM: fold change of luciferase expression at 10 uM test compound relative to vehicle (0.1% DMSO); for Fold relative to benchmark @ 100 nM: luciferase expression at 100 nM test compound relative to 100 nM benchmark compound 11-cl-BBQ
Chain of aryl hydrocarbon receptor (AhR) (P30561 10-805): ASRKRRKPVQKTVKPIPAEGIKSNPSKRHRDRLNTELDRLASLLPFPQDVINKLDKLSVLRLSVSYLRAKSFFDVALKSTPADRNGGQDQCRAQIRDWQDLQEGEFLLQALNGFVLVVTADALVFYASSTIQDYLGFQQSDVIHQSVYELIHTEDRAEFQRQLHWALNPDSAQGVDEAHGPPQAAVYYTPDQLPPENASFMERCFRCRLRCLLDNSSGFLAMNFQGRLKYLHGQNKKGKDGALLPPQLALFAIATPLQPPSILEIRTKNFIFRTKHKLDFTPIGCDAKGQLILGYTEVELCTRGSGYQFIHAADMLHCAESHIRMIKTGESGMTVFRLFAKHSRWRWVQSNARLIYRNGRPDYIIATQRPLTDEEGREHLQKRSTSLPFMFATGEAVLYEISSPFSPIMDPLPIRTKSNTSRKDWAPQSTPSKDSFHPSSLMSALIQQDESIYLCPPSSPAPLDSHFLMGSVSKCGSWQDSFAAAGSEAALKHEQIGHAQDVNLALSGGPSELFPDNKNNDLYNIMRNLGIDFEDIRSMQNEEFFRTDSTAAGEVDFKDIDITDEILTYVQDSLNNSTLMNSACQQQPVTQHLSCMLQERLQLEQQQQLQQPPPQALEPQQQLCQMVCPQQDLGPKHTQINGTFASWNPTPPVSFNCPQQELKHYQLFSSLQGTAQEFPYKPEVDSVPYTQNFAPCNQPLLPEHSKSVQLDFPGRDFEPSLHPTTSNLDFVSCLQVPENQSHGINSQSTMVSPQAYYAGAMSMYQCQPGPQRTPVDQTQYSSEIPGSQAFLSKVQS
Chain of aryl hydrocarbon receptor (AhR) (P53762 whole entry partner): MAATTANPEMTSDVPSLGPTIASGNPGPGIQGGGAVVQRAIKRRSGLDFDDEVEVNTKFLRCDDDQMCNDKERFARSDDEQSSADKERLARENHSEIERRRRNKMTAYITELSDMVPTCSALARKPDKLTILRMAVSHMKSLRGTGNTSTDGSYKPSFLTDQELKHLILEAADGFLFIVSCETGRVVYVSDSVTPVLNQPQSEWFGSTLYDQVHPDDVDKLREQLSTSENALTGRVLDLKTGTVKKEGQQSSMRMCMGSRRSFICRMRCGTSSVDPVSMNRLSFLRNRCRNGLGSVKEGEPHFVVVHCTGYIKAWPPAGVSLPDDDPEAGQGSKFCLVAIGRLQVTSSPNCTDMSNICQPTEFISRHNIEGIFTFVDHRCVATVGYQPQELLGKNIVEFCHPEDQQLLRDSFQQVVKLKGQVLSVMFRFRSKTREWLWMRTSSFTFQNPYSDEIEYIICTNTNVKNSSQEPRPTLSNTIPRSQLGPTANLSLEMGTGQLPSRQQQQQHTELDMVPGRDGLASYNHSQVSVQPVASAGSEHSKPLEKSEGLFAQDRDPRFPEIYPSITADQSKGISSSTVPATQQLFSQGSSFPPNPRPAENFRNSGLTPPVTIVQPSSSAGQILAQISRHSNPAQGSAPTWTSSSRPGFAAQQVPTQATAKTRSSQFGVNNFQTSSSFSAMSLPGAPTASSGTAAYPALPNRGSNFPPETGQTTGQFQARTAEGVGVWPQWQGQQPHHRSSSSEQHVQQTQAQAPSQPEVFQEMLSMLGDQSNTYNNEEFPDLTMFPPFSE
How it was run: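 Mouse Hepa1 cells transfected with an AhRE-luciferase reporter were plated at 1×10^4 cells/well, grown overnight, then exposed to compounds. Cell lysates were assayed for luciferase by luminometry, with results given as fold induction over 0.1% DMSO vehicle.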

CYP-1A2 = CYP-1A2 (Homo sapiens (Human), UniProt P05177); experiment: CYP panel profile: P450 inhibition, CYP-1A2; assay type: in vitro ADME; conditions: human liver microsomes; read-out: CYP-1A2 IC50
Chain of CYP-1A2 (P05177 whole entry): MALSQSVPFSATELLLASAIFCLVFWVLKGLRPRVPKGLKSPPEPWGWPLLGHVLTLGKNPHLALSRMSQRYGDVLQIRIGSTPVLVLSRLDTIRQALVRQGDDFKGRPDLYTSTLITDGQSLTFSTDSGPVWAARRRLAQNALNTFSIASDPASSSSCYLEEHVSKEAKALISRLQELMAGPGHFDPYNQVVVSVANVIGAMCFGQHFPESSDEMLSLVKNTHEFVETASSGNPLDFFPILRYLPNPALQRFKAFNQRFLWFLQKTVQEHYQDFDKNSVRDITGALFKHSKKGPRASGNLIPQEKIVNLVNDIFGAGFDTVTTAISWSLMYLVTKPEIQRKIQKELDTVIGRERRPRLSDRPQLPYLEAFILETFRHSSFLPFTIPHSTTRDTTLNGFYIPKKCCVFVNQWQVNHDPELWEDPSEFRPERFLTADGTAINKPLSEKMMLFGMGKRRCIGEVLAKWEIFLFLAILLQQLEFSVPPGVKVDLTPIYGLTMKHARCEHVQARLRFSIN
Experimental: (§1) 5. CYP Panel Profile: P450 Inhibition
(§2) From 10 mM stock solutions of test compounds, a dilution plate was prepared diluting serially starting from 5 mM up to 2 μM in Acetonitrile/DMSO or Methanol/DMSO Human liver Microsomes were added at required concentration as per specific CYP isoform in a deep well assay plate (1A2, 2C9, 2D6, 2B6, 2C8, 2C19, and 3A4). Compounds were spiked in all wells from dilution plate at final concentrations starting from 50 μM up to 0.02 μM, except for positive and negative control. Specific substrate were added to all wells and reactions were pre-incubated for 10 min. To start reactions, NADPH was added to all wells at 1 mM final concentration. Assay plate was mixed by vortexing and incubated at 37° C. for […] for 3A4.20 min for (1A2, 2C9, 2B6, 2C8, 2D6) and […] for 2C19. A quencher with chilled acetonitrile suitable internal standard was added. Samples were centrifuged and supernatants were collected and subjected to LC-MS/MS analysis for determination.

CYP-2C9 = CYP-2C9 (Homo sapiens (Human), UniProt P11712); experiment: CYP panel profile: P450 inhibition, CYP-2C9; assay type: in vitro ADME; conditions: human liver microsomes
Chain of CYP-2C9 (P11712 whole entry): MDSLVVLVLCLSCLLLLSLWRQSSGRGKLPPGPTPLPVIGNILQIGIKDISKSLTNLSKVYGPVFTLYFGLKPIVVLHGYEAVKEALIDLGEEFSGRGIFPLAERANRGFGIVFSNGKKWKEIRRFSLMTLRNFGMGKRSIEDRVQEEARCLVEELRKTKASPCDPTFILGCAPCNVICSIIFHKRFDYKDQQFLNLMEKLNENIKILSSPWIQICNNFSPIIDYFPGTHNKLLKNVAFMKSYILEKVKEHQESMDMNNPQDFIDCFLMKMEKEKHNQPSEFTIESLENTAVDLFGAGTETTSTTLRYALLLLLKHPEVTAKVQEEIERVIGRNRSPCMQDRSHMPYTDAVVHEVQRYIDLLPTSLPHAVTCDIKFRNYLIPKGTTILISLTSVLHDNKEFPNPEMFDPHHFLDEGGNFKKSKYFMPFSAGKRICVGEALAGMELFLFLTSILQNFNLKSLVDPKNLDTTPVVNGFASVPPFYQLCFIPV
Experimental: as §1, §2

CYP-2D6 = CYP-2D6 (Homo sapiens (Human), UniProt P10635); experiment: CYP panel profile: P450 inhibition, CYP-2D6; assay type: in vitro ADME; conditions: human liver microsomes
Chain of CYP-2D6 (P10635 whole entry): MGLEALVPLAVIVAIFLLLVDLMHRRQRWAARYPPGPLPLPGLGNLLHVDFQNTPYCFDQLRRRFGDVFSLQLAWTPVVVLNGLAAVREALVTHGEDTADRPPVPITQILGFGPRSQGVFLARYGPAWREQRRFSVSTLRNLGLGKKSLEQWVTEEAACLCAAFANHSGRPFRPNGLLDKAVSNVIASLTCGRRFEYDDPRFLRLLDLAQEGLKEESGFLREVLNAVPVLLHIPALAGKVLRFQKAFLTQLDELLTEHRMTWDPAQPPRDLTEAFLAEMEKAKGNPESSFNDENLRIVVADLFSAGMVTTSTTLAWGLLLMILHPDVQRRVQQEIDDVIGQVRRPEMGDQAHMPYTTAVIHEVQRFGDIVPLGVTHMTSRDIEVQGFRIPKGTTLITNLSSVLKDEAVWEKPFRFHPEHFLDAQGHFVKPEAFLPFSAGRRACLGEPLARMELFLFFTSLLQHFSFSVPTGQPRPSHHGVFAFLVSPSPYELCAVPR
Experimental: as §1, §2

CYP-2B6 = CYP-2B6 (Homo sapiens (Human), UniProt P20813); experiment: CYP panel profile: P450 inhibition, CYP-2B6; assay type: in vitro ADME; conditions: human liver microsomes
Experimental: as §1, §2

CYP-2C8 = CYP-2C8 (Homo sapiens (Human), UniProt P10632); experiment: CYP panel profile: P450 inhibition, CYP-2C8; assay type: in vitro ADME; conditions: human liver microsomes
Chain of CYP-2C8 (P10632 whole entry): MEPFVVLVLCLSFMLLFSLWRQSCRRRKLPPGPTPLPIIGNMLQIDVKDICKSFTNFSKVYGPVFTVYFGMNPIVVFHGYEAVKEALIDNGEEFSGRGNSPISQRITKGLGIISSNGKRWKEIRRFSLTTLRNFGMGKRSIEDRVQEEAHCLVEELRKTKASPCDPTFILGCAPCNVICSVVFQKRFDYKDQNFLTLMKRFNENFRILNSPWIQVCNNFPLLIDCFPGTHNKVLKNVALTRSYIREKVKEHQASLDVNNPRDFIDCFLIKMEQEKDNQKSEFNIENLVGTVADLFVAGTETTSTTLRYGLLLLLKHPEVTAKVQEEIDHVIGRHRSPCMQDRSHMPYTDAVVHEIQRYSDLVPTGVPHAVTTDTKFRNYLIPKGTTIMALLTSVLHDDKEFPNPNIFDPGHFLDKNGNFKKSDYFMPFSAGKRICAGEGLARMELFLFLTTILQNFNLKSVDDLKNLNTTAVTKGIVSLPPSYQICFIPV
Experimental: as §1, §2

CYP-2C19 = CYP-2C19 (Homo sapiens (Human), UniProt P33261); experiment: CYP panel profile: P450 inhibition, CYP-2C19; assay type: in vitro ADME; conditions: human liver microsomes
Chain of CYP-2C19 (P33261 whole entry): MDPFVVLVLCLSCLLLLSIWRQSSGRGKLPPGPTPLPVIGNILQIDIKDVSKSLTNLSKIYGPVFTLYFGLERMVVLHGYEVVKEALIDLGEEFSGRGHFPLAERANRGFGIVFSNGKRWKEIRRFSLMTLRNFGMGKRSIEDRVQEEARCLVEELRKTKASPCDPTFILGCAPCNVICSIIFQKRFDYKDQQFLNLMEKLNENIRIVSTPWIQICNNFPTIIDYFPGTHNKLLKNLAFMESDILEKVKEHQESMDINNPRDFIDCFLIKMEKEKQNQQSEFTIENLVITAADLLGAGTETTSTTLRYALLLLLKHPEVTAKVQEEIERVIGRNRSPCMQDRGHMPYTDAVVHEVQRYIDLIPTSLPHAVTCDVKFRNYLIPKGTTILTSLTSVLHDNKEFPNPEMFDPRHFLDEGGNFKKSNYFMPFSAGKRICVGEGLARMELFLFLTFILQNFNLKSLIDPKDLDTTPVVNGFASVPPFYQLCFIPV
Experimental: as §1, §2

CYP-3A4 = CYP-3A4 (Homo sapiens (Human), UniProt P08684); experiment: CYP panel profile: P450 inhibition, CYP-3A4; assay type: in vitro ADME; conditions: human liver microsomes
Chain of CYP-3A4 (P08684 whole entry): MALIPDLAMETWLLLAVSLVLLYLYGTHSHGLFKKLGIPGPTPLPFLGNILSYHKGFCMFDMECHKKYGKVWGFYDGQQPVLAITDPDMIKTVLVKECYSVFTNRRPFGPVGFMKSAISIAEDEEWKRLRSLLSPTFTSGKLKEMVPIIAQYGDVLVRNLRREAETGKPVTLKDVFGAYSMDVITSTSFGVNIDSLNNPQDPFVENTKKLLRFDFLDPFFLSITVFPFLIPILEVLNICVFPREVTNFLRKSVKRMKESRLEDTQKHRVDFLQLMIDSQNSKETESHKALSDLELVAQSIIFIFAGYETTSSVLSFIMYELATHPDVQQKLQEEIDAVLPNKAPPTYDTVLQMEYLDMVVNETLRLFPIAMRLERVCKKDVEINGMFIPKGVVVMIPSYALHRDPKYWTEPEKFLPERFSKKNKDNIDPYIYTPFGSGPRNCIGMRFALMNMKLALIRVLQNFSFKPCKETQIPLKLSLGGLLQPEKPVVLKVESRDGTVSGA
Experimental: as §1, §2

[2] = In vivo PK study, intravenous and oral administration in male mice; parameters: species or system mouse; conditions: plasma; for C0: read-out: C0_Cmax
Experimental: In Vivo PK Study Pharmacokinetics of Exemplary Compounds 362 and 893 Following an Intravenous and Oral Administration in Male C57BL/6J Mice.
Male C57BL/6J mice, approximately 8-10 weeks old, were obtained from the vivarium of Fundación Ciencia & Vida Chile (Santiago, Chile). Dosing solution of Compound 362 for PO administration was formulated in a vehicle containing 40% DMSO, 20% Kolliphor EL, 40% Propylene Glycol at 0.8 mg/mL. Dosing solution of Compound 362 for IV administration was formulated in a vehicle containing 30% DMSO, 20% Kolliphor EL, 50% PBS at […].
Male […] mice, approximately 8-11 weeks old, 22-27 grams were obtained from the vivarium Fundación Ciencia & Vida Chile (Santiago, Chile). Animals were acclimated for a minimum period of 4 days upon arrival at the testing facility. Animals were weighed, identified by marking the tail with numbers using a non-toxic permanent marker and designated into the following treatment groups on the day of dosing:
Group 1 animals received an IV administration via caudal vein of 2 mg/kg PRXS0362 dosing solution.
Group 2 animals received a PO administration via feeding tubes (20 gauge) of 8 mg/kg PRXS0362 dosing solution.
Terminal whole blood was collected via cardiac puncture for group 1 at the following time points: 5, 10, 15, 30, 60, 120, 240, 360, and 480 minutes. Non-dosed mice were used to collect samples of zero time points. For the group 2 at the following time point: 15, 30, 60, 120, 240, 360, and 480 minutes.
Whole blood, approximately 300 μL per time point, was collected into microtainer tubes with EDTA (K2). Blood samples were centrifuged immediately at approximately 9,000 G at 4° C. for 5 minutes and plasma separated. Plasma samples were placed into individually labeled tubes and stored in a −80° C. freezer prior to LC/MS/MS analysis.
The whole brain was collected at each point only for both groups, for this the animals were euthanized with CO2, decapitated, the brain was extracted weighed, frozen in liquid nitrogen and stored at −80° C. prior to LC/MS/MS analysis.
Compound 893 was tested by the same protocol as above.

[3] = Liver microsomal stability, rat
Experimental: (§3) The assessment of metabolic stability of testing compounds was performed using human, mouse, rat, dog and monkey liver microsomes (20 mg protein/ml). Each reaction mixture contained 42.5 μL of 0.1 M potassium phosphate buffer pH 7.4, containing respective LM protein (final concentration 0.5 mg/ml). 2.5 μL of the compound stock solution was added in it (1 μM final concentration). The reaction was initiated by the addition of 5 μL NADPH solution (final Concentration 1 mM). At different time points (0, 5, 15, and 30 minutes), samples were quenched with 200 μL of cold acetonitrile containing ISTD Propranolol. Samples were centrifuged at 3500 rpm for 20 mM at 4° C. Supernatant was subjected to LC-MS/MS analysis for quantification. Verapamil was used as a positive control.

[4] = Liver microsomal stability, mouse
Experimental: as §3

[5] = mouse, liver microsomes, pH 7.4

## O=C(c1c(F)cc(Br)cc1F)n1c(-c2cccc3ccccc23)nc2cc(Cl)ccc21 [Compound 638]
[1]
  Fold @ 1 nM: 1 fold
  Fold @ 100 nM: 12 fold
  Fold @ 10 uM: 20 fold
  Fold relative to benchmark @ 100 nM: 1.17 fold
CYP-1A2
  pIC50: 6.52
CYP-2C9
  pIC50: 5.28
CYP-2D6
  pIC50: 4.84
CYP-2B6
  pIC50: 4.94
CYP-2C8
  pIC50: 5.74
CYP-2C19
  pIC50: 5.47
CYP-3A4
  pIC50: 5.09

## O=C(c1ccccc1)n1c(-c2cccc3ccccc23)nc2cc(OC(F)(F)F)ccc21 [Compound 703]
[1]
  Fold @ 1 nM: 1 fold
  Fold @ 100 nM: 22 fold
  Fold @ 10 uM: 23 fold
  Fold relative to benchmark @ 100 nM: 0.85 fold
CYP-1A2
  pIC50: 6.10
CYP-2C9
  pIC50: 5.28
CYP-2D6
  pIC50: < 4.30
CYP-2B6
  pIC50: 4.92
CYP-2C8
  pIC50: 5.38
CYP-2C19
  pIC50: 6.30
CYP-3A4
  pIC50: 4.99

## COC(=O)c1ccc2c(c1)nc(-c1cccc3ccccc13)n2C(=O)c1ccc(F)c(F)c1 [Compound 848]
[1]
  Fold @ 1 nM: 1 fold
  Fold @ 100 nM: 1 fold
  Fold @ 10 uM: 5 fold
  Fold relative to benchmark @ 100 nM: 0.04 fold
CYP-1A2
  pIC50: 5.59
CYP-2C9
  pIC50: 5.20
CYP-2D6
  pIC50: 5.54
CYP-2B6
  pIC50: 4.78
CYP-2C8
  pIC50: 5.46
CYP-2C19
  pIC50: 5.96
CYP-3A4
  pIC50: 4.86

## COc1ccc(C(=O)n2c(-c3cccc4ccccc34)nc3ccc(Cl)cc32)cc1 [Compound 536, (6-chloro-2-(naphthalen-1-yl)-1H-benzo[d]imidazol-1-yl)(4-methoxyphenyl)methanone]
[1]
  Fold @ 1 nM: 1 fold
  Fold @ 100 nM: 39 fold
  Fold @ 10 uM: 41 fold
  Fold relative to benchmark @ 100 nM: 0.98 fold
CYP-1A2
  pIC50: 6.22
CYP-2C9
  pIC50: 5.32
CYP-2D6
  pIC50: < 4.30
CYP-2B6
  pIC50: 4.80
CYP-2C8
  pIC50: 4.77
CYP-2C19
  pIC50: 5.59
CYP-3A4
  pIC50: 5.77

## COC(=O)c1ccc2nc(-c3cccc4ccccc34)n(C(=O)c3ccc(F)c(F)c3)c2c1 [Compound 849]
[1]
  Fold @ 1 nM: 1 fold
  Fold @ 100 nM: 1 fold
  Fold @ 10 uM: 1 fold
  Fold relative to benchmark @ 100 nM: 0.04 fold
CYP-1A2
  pIC50: 4.82
CYP-2C9
  pIC50: 5.11
CYP-2D6
  pIC50: 4.71
CYP-2B6
  pIC50: < 4.32
CYP-2C8
  pIC50: 5.39
CYP-2C19
  pIC50: 5.82
CYP-3A4
  pIC50: < 4.30

## O=C(C1CCCCC1)n1c(-c2cccc3ccccc23)nc2ccc(Cl)cc21 [Compound 640]
[1]
  Fold @ 1 nM: 1 fold
  Fold @ 100 nM: 10 fold
  Fold @ 10 uM: 15 fold
  Fold relative to benchmark @ 100 nM: 1.21 fold
CYP-1A2
  pIC50: 6.22
CYP-2C9
  pIC50: 5.35
CYP-2D6
  pIC50: 4.54
CYP-2B6
  pIC50: 4.51
CYP-2C8
  pIC50: 5.64
CYP-2C19
  pIC50: 5.62
CYP-3A4
  pIC50: 5.42

## O=C(c1ccc(F)cc1)n1c(-c2cccc3ccccc23)nc2cc(Cl)ccc21 [Compound 586]
[1]
  Fold @ 1 nM: 7 fold
  Fold @ 100 nM: 20 fold
  Fold @ 10 uM: 18 fold
  Fold relative to benchmark @ 100 nM: 1.33 fold
CYP-1A2
  pIC50: 5.77
CYP-2C9
  pIC50: 5.10
CYP-2D6
  pIC50: < 4.30
CYP-2B6
  pIC50: 4.66
CYP-2C8
  pIC50: 5.04
CYP-2C19
  pIC50: 5.15
CYP-3A4
  pIC50: 5.89

## O=C(c1ccccc1)n1c(-c2cccc3ccccc23)nc2cc(Cl)ccc21 [Compound 494]
[1]
  Fold @ 1 nM: 1 fold
  Fold @ 100 nM: 29 fold
  Fold @ 10 uM: 43 fold
  Fold relative to benchmark @ 100 nM: 0.94 fold
CYP-1A2
  pIC50: 6.15
CYP-2C9
  pIC50: 5.38
CYP-2D6
  pIC50: < 4.30
CYP-2B6
  pIC50: < 4.35
CYP-2C8
  pIC50: 5.60
CYP-2C19
  pIC50: 5.28
CYP-3A4
  pIC50: 5.92

## O=C(c1ccccc1)n1c(-c2cccc3ccccc23)nc2ccc(Cl)cc21 [Compound 495]
[1]
  Fold @ 1 nM: 2.3 fold
  Fold @ 100 nM: 25 fold
  Fold @ 10 uM: 59 fold
  Fold relative to benchmark @ 100 nM: 0.81 fold
CYP-1A2
  pIC50: 6.52
CYP-2C9
  pIC50: 5.25
CYP-2D6
  pIC50: 4.49
CYP-2B6
  pIC50: 4.71
CYP-2C8
  pIC50: 5.72
CYP-2C19
  pIC50: 5.85
CYP-3A4
  pIC50: 5.28

## O=c1c2cccc3cccc(c32)c2nc3cc(Cl)ccc3n12 [Compound 362, 6-chloro-3,10-diazapentacyclo[10.7.1.0^2,10.0^4,9.0^16,20]icosa-1(19),2,4(9),5,7,12,14,16(20),17-nonaen-11-one]
[1]
  Fold @ 1 nM: 16 fold
  Fold @ 100 nM: 22 fold
  Fold relative to benchmark @ 100 nM: 1 fold
[2]; IV 2 mg/Kg
  CL_CL/F: 4.418 L/[Kg*h]
  Vd_Vd/F: 5.67 L/kg
  thalf: 0.889 h
[2]; PO 8 mg/Kg
  CL_CL/F: 7.86 L/[Kg*h]
  Vd_Vd/F: 8.314 L/kg
  thalf: 0.733 h
[2]; mouse, IV 2 mg/Kg
  AUC(0-inf): 453 ng·h/mL
  AUC(0-t): 451 ng·h/mL
  MRT: 52.3 min
  C0: 215 ng/mL
[2]; mouse, PO 8 mg/Kg vs IV 2 mg/Kg
  bioavailability: 56.2%
[2]; mouse, PO 8 mg/Kg
  AUC(0-inf): 1020 ng·h/mL
  AUC(0-t): 1020 ng·h/mL
  MRT: 98 min
  Tmax: 60 min
  C0: 427 ng/mL
[3]; rat liver microsomes, 30 min, 1 μM compound, 0.5 mg/ml protein
  Rem @ RLM × 30 min: 14.5%
[3]; rat, liver microsomes, pH 7.4
  half-life at 1 μM: 11.4 min
  microsomal CLint at 1 μM: 121 µL/min/mg
[4]; mouse liver microsomes, 30 min, 1 μM compound, 0.5 mg/ml protein
  Rem @ MLM × 30 min: 12.0%
[4]; [5]
  half-life at 1 μM: 9.8 min
  microsomal CLint at 1 μM: 141 µL/min/mg

## O=C(c1ccc(F)c(F)c1)n1c(-c2ccc(-c3ccccc3)cc2)nc2cc(Cl)ccc21 [Compound 643]
[1]
  Fold @ 1 nM: 1 fold
  Fold @ 100 nM: 1 fold
  Fold @ 10 uM: 2 fold
  Fold relative to benchmark @ 100 nM: 0.11 fold
CYP-1A2
  pIC50: 4.68
CYP-2C9
  pIC50: 5.04
CYP-2D6
  pIC50: < 4.30
CYP-2B6
  pIC50: < 4.30
CYP-2C8
  pIC50: 4.91
CYP-2C19
  pIC50: < 4.30
CYP-3A4
  pIC50: < 4.30

## O=C(c1ccccc1)n1c(-c2cccc3ccccc23)nc2cc(Cl)c(Cl)cc21 [Compound 693]
[1]
  Fold @ 1 nM: 2 fold
  Fold @ 100 nM: 32 fold
  Fold @ 10 uM: 87 fold
  Fold relative to benchmark @ 100 nM: 1.23 fold
CYP-1A2
  pIC50: 5.07
CYP-2C9
  pIC50: 4.94
CYP-2D6
  pIC50: < 4.30
CYP-2B6
  pIC50: < 4.30
CYP-2C8
  pIC50: 5.46
CYP-2C19
  pIC50: 4.62
CYP-3A4
  pIC50: 5.70

## O=C(c1cccc2ccccc12)n1c(-c2cccc3ccccc23)nc2cc(Cl)ccc21 [Compound 704]
CYP-1A2
  pIC50: 5.92
CYP-2C9
  pIC50: 5.05
CYP-2D6
  pIC50: < 4.30
CYP-2B6
  pIC50: 5.09
CYP-2C8
  pIC50: 5.25
CYP-2C19
  pIC50: 5.34
CYP-3A4
  pIC50: 5.41
